Values of other authors, collected in patent US20240173460A1, “STORAGE SOLUTIONS FOR MAINTAINING OF AXONAL VIABILITY” (Board of Regents, The University of Texas System, priority 2022, published 2024).

[Cl-].[K+] [Potassium Chloride]
solubility in water: freely soluble in water
